{"source": "patent US20160214961A1", "about": "“NOVEL SALTS OF CRIZOTINIB AND THEIR PREPARATION” (SHILPA MEDICARE LIMITED, priority 2013, published 2016)", "key": {"[1]": {"assay": "Stability on handling and storage of the salts", "assay_type": "physicochemical", "details": "storage for longer time; no significant or measurable change"}, "[2]": {"details": "cited from earlier work"}, "[3]": {"details": "class IV = low solubility and low permeability; cited from earlier work"}, "[4]": {"details": "powder; cited from earlier work"}}, "data": [{"smiles": "C[C@@H](Oc1cc(-c2cnn(C3CCNCC3)c2)cnc1N)c1c(Cl)ccc(F)c1Cl", "note": "[Crizotinib Ferulate]", "values": [{"measurement": "stability to handle and store for longer time (morphology and physicochemical characteristics)", "setting": "[1]", "result": "adequately stable"}]}, {"smiles": "C[C@@H](Oc1cc(-c2cnn(C3CCNCC3)c2)cnc1N)c1c(Cl)ccc(F)c1Cl", "note": "[Crizotinib, (R)-3-[1-(2,6-Dichloro-3-fluorophenyl)ethoxy]-5-[1-(piperidin-4-yl)-1H-pyrazol-4-yl]pyridin-2-amine]", "values": [{"measurement": "solubility in acidic pH", "setting": "[2]; acidic pH", "result": "highly soluble"}, {"measurement": "solubility in water", "setting": "[2]; water", "result": "insoluble"}, {"measurement": "Biopharmaceutics Classification System (BCS) class", "setting": "[3]", "result": "class IV"}, {"measurement": "hygroscopicity", "setting": "[4]", "result": "non-hygroscopic"}]}]}
